Experimental data: patent US9199975B2, “Biaryl imidazole derivatives for regulating CYP17” (Asana Biosciences, LLC, priority 2011, dated 2015)

What follows are compounds tested against T1, human CYP17 (Homo sapiens, UniProt P05093) (assay: Cell-based human CYP17 inhibition assay, H295R adrenocortical carcinoma cells). Settings: 16 hours at 37° C., read-out: CYP17 (human H295R adrenal cells).
T1 sequence (P05093 1-508): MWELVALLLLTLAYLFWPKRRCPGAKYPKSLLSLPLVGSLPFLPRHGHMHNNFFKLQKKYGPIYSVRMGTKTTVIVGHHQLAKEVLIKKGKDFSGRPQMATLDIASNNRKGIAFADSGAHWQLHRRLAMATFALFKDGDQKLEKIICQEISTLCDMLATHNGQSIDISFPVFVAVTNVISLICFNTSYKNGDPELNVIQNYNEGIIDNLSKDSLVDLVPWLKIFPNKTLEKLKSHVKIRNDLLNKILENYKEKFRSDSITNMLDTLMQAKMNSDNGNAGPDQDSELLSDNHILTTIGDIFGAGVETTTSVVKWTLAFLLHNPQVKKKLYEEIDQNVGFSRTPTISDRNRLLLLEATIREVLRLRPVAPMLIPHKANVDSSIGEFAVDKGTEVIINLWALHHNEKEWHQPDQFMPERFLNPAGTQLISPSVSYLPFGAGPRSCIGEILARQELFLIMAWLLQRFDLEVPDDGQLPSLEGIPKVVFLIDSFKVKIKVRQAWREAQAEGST
Design: H295R Adrenocortical carcinoma cells [NCI-H295A, ATCC Number CRL-2128, American Type Culture Collection; host or cells: H295R adrenocortical carcinoma cells
Procedure: Cell-Based Human CYP17 Inhibition Assay
A. Materials • 1. H295R Adrenocortical Carcinoma Cells and Growth Media: The media for the H295R Adrenocortical carcinoma cells [NCI-H295A, ATCC Number CRL-2128, American Type Culture Collection, Manassas, Va., US] (500 mL) was a DMEM:F12 Mix 1:1 with 5% […] BD Nu Serum; 1% (5 mL) ITS+Premix [BD Biosciences] and 1% Penstrep. • 2. LNCap-CYP17 Cells and Growth Media: Full length hCYP17a1 gene (NCBI Reference Sequence: NM_000102.3) was cloned in pCDNA3.1(+) vector between HindIII and XhoI site. The pCDNA3.1(+) vector contains the Neomycin resistance gene and was used for selection of stable cell line. The hCYP17a1 containing pCDNA3.1(+) was transfected into LNCap cells to create the LNCap-CYP17 cell line. The media for the LNCaP-CYP17 cells was RPMI 1640, 10% FBS, 1% PenStrep, Geneticin 400 μg/mL.
The H295R cells or LNCaP-hCYP17 cells were subcultured and 30,000 cells per well were seeded in a poly-d lysine plate and incubated overnight at 37° C. The next day the media was removed and 200 µL of fresh media with ^3H3-17α-hydroxy-pregnenolone (1:1000) was added. 50 μL of serially diluted compounds from a 5× plate (5 times the final desired concentration) was added. The working concentration range for active, new compounds started from a high concentration of […] with 3-fold serial dilutions generating up to 10 concentrations. The serial dilution in the 100× plate (in DMSO) and the stamping of a 5× plate (in media) from the 100× plate were carried out using a TECAN liquid handling device.
The plates were incubated overnight (16 hours) at 37° C. After 16 hours, the media was removed (approximately 220 μL) and an equal amount of chloroform was added, mixed and incubated for 30 minutes at 4 degrees. The plate was centrifuged at 4000 rpm for 15 minutes at 4° C., following which the top aqueous layer was carefully removed and added into a new deep well plate. An equal volume of activated 5% charcoal was added, mixed and incubated for 30 minutes at 4° C. The plate was then centrifuged at 4000 rpm for 15 minutes at 4° C. and the top layer carefully separated, avoiding any charcoal contamination, and placed in a white, clear bottom plate (plate cat #3610, Corning Life Sciences). An equal volume of Microscint™ 40 was added and mixed well. Following the incubation for 30 minutes, readings for the radiotracer were taken using a Microbeta® trilux.

Structure (SMILES) | IC50 [nM]
CCC(c1cnc(-c2cccc(F)c2)s1)n1ccnc1 (stereo not shown) [Example 1, 5-(1-(1H-imidazol-1-yl)propyl)-2-(3-fluorophenyl)thiazole] | 50 to 200
CCC(c1ccc(-c2ccc(OC)cc2)s1)n1ccnc1 (stereo not shown) [Example 3, 1-(1-(5-(4-methoxyphenyl)thiophen-2-yl)propyl)-1H-imidazole] | < 50
CCC(c1ccc(-c2ccc(O)cc2)s1)n1ccnc1 (stereo not shown) [Example 4, 4-(5-(1-(1H-imidazol-1-yl)propyl)thiophen-2-yl)phenol] | < 50
CCOC(=O)c1ccc(-c2ccc(C(CC)n3ccnc3)nc2)cc1 (stereo not shown) [Example 5, Ethyl 4-(6-(1-(1H-imidazol-1-yl)propyl)pyridin-3-yl)benzoate] | 50 to 200
CCC(c1ccc(-c2ccc(C(=O)O)cc2)cn1)n1ccnc1 (stereo not shown) [Example 6, 4-(6-(1-(1H-imidazol-1-yl)propyl)pyridin-3-yl)benzoic acid] | 201 to 10000
CCC(c1ccc(-c2cccc(OC)c2)cn1)n1ccnc1 (stereo not shown) [Example 7, 2-(1-(1H-imidazol-1-yl)propyl)-5-(3-methoxyphenyl)pyridine] | < 50
CCC(c1ccc(-c2cccc(O)c2)cn1)n1ccnc1 (stereo not shown) [Example 8, 3-(6-(1-(1H-imidazol-1-yl)propyl)pyridin-3-yl)phenol] | < 50
CCC(c1ccc(-c2ccc(C(=O)NC)cc2)cn1)n1ccnc1 (stereo not shown) [Example 9, 4-(6-(1-(1H-imidazol-1-yl)propyl)pyridin-3-yl)-N-methylbenzamide] | 201 to 10000
CCC(c1ccc(-c2ccc(C(N)=O)cc2)cn1)n1ccnc1 (stereo not shown) [Example 10, 4-(6-(1-(1H-imidazol-1-yl)propyl)pyridin-3-yl)benzamide] | 201 to 10000
CCC(c1ccc(-c2ccc(COCOC)cc2)cn1)n1ccnc1 (stereo not shown) [Example 11, 2-(1-(1H-imidazol-1-yl)propyl)-5-(4-((methoxymethoxy)methyl)-phenyl)pyridine] | 50 to 200
CC(c1ccc(-c2ccc(F)cc2)cn1)n1ccnc1 (stereo not shown) [Example 12, 2-(1-(1H-imidazol-1-yl)ethyl)-5-(4-fluorophenyl)pyridine] | < 50
CC(c1ccc(-c2ccoc2)cn1)n1ccnc1 (stereo not shown) [Example 13, 2-(1-(1H-imidazol-1-yl)ethyl)-5-(furan-3-yl)pyridine] | 201 to 10000
CC(c1ccc(-c2ccc(N)cc2)cn1)n1ccnc1 (stereo not shown) [Example 14, 4-(6-(1-(1H-imidazol-1-yl)ethyl)pyridin-3-yl)aniline] | 201 to 10000
COc1ccc(-c2ccc(C(C)n3ccnc3)nc2)cc1 (stereo not shown) [Example 15, 2-(1-(1H-imidazol-1-yl)ethyl)-5-(4-methoxyphenyl)pyridine] | 50 to 200
CC(c1ccc(-c2ccc(O)cc2)cn1)n1ccnc1 (stereo not shown) [Example 16, 4-(6-(1-(1H-imidazol-1-yl)ethyl)pyridin-3-yl)phenol] | 50 to 200
CCC(c1ccc(-c2ccc(C#N)cc2)cn1)n1ccnc1 (stereo not shown) [Example 17, 4-[6-(1-Imidazol-1-yl-propyl)-pyridin-3-yl]-benzonitrile] | 50 to 200
CCC(c1ccc(-c2ccccc2C#N)cn1)n1ccnc1 (stereo not shown) [Example 18, 2-(6-(1-(1H-imidazol-1-yl)propyl)pyridin-3-yl)benzonitrile] | 201 to 10000
CCC(c1nnc(-c2ccc(F)cc2)s1)n1ccnc1 (stereo not shown) [Example 19, 2-(1-(1H-imidazol-1-yl)propyl)-5-(4-fluorophenyl)-1,3,4-thiadiazole] | 50 to 200
CC(c1ccc(-c2ccc(=O)n(C)c2)s1)n1ccnc1 (stereo not shown) [Example 20, 5-(5-(1-(1H-imidazol-1-yl)ethyl)thiophen-2-yl)-1-methylpyridin-2(1H)-one] | < 50
CC(c1ccc(-c2ccc(=O)n(C(C)C)c2)s1)n1ccnc1 (stereo not shown) [Example 21, 5-(5-(1-(1H-imidazol-1-yl)ethyl)thiophen-2-yl)-1-isopropylpyridin-2(1H)-one] | 50 to 200

Structure (SMILES) | IC50 [nM]
CC(c1cnc(-c2ccc(C#N)cc2)s1)n1ccnc1 (stereo not shown) [Example 22, 4-(5-(1-(1H-imidazol-1-yl)ethyl)thiazol-2-yl)benzonitrile] | 50 to 200
CC(C)CC(c1ccc(-c2ccc(O)cc2)s1)n1ccnc1 (stereo not shown) [Example 23, 4-(5-(1-(1H-imidazol-1-yl)-3-methylbutyl)-thiophen-2-yl)phenol] | < 50
COc1ccc(-c2ccc(C(C)(C)n3ccnc3)s2)cc1 [Example 24, 1-(2-(5-(4-methoxyphenyl)-thiophen-2-yl)-propan-2-yl)-1H-imidazole] | < 50
COc1ccc(-c2ccc(C(C)n3ccnc3)s2)cn1 (stereo not shown) [Example 25, 5-[5-(1-Imidazol-1-yl-ethyl)-thiophen-2-yl]-2-methoxy-pyridine] | < 50
CC(C)(c1ccc(-c2ccc(O)cc2)s1)n1ccnc1 [Example 26, 4-[5-(1-Imidazol-1-yl-1-methyl-ethyl)-thiophen-2-yl]-phenol] | < 50
CCC(c1ccc(-c2ccc(OC)cc2)o1)n1ccnc1 (stereo not shown) [Example 27, 1-{1-[5-(4-Methoxy-phenyl)-furan-2-y]-propyl}-1H-imidazole] | < 50
CC(c1cnc(-c2ccc(F)cc2F)s1)n1ccnc1 (stereo not shown) [Example 28, 2-(2,4-Difluoro-phenyl)-5-(1-imidazol-1-yl-ethyl)-thiazole] | < 50
CCC(c1ccc(-c2ccc(F)cc2)cn1)n1ccnc1 (stereo not shown) [Example 29, 5-(4-Fluoro-phenyl)-2-(1-imidazol-1-yl-propyl)-pyridine] | < 50
CCC(c1ccc(-c2ccc(O)cc2)o1)n1ccnc1 (stereo not shown) [Example 30, 4-[5-(1-Imidazol-1-yl-propyl)-furan-2-yl]-phenol] | < 50
CCC(c1cnc(-c2ccc(NC(=O)OC(C)(C)C)cc2)s1)n1ccnc1 (stereo not shown) [Example 31, {4-[5-(1-Imidazol-1-yl-propyl)-thiazol-2-yl]-phenyl}-carbamic acid tert-butyl ester] | < 50
CCC(c1cnc(-c2ccc(F)cc2F)s1)n1ccnc1 (stereo not shown) [Example 32, 2-(2,4-Difluoro-phenyl)-5-(1-imidazol-1-yl-propyl)-thiazole] | < 50
CCC(c1cnc(-c2ccc(F)cc2)s1)n1ccnc1 (stereo not shown) [Example 33, 2-(4-Fluoro-phenyl)-5-(1-imidazol-1-yl-propyl)-thiazole] | < 50
CC(c1ccc(-c2ccc(F)cc2)cn1)n1ccnc1 (stereo not shown) [Example 34, 5-(4-Fluoro-phenyl)-2-(1-imidazol-1-yl-ethyl)-pyridine] | < 50
CCC(c1cnc(-c2ccc(OC)cc2)s1)n1ccnc1 (stereo not shown) [Example 35, 5-(1-Imidazol-1-yl-propyl)-2-(4-methoxy-phenyl)-thiazole] | 50 to 200
COc1ccc(-c2ccc(C(C)n3ccnc3)s2)cc1 (stereo not shown) [Example 36, 1-{1-[5-(4-Methoxy-phenyl)-thiophen-2-yl]-ethyl}-1H-imidazole] | < 50
CCC(c1ccc(-c2ccccc2O)cn1)n1ccnc1 (stereo not shown) [Example 37, 2-[6-(1-Imidazol-1-yl-propyl)-pyridin-3-yl]-phenol] | < 50
CCC(c1cccc(-c2ccc(OC)cc2)n1)n1ccnc1 (stereo not shown) [Example 38, 2-(1-Imidazol-1-yl-propyl)-6-(4-methoxy-phenyl) pyridine] | 50 to 200
COc1ccc(-c2ccc(C(CC(C)C)n3ccnc3)s2)cc1 (stereo not shown) [Example 39, 1-{1-[5-(4-Methoxy-phenyl)-thiophen-2-yl]-3-methyl-butyl}-1H-imidazole] | < 50
CC(c1ccc(-c2ccccc2F)cn1)n1ccnc1 (stereo not shown) [Example 40, 5-(2-Fluoro-phenyl)-2-(1-imidazol-1-yl-ethyl)-pyridine] | 50 to 200
CCC(c1ccc(-c2ccc(CO)cc2)cn1)n1ccnc1 (stereo not shown) [Example 41, {4-[6-(1-Imidazol-1-yl-propyl)-pyridin-3-yl]-phenyl}-methanol] | 50 to 200
